# Data published in article PMC3076140 (Journal of medicinal chemistry, 2011).
# Tests used:
# [1] = tested on: mouse MC1 and MC3-5 receptors
# melanocortin receptors = settings: lactam bridge template; cited from earlier work
Substance,MC4R versus MC3R selectivity ([1]; from EC50 values of Table 2),"agonist efficacy at all the melanocortin receptor isoforms examined ([1]; mMC1R, mMC3R, mMC4R, mMC5R, maximal efficacy compared to NDP-MSH control)",agonist activity at the melanocortin receptors (melanocortin receptors)
Tyr-c[Cys-His-D-Phe-(R)-MIM(Arg)-Trp-Asn-Ala-Phe-Cys]-Tyr-NH2 [compound 7],5 fold,full agonists,
Tyr-c[β-Asp-His-DPhe-Arg-Trp-Asn-Ala-Phe-Dpr]-Tyr-NH2 (sidechain bridge or staple),,,full agonist at the melanocortin receptors that is as potent as the endogenous α-MSH agonist
